Laboratory results taken from patent US20250204541A1, “GAS PHASE TREATMENT OF PRODUCE” (priority 2022, published 2025).

How the values were obtained:
Type in all cases: in vivo
[1] = tested on: Penicillium italicum (Pi); experiment: Antifungal activity of vapor against Penicillium italicum in wounded, infected mandarins; details: 72 hours vapor of 3 mL in a Petri dish
Protocol: Example 2. The antifungal activity of allyl isothiocyanate (AITC) and DADS vapor was tested against Pd and Penicillium italicum (Pi) in mandarins. All samples were wounded by puncturing with a screw. Mandarins were infected by dispensing either 1000 Pd spores or 1000 Pi spores suspended in 10 μL into the wound. The test groups consisted of mandarins that were: uninfected and untreated; uninfected and treated by dipping in a solution of 1 g/L of imazalil; infected with Pd and untreated; infected with Pd and exposed to AITC; infected with Pd and exposed to DADS; infected with Pi and untreated; infected with Pi and exposed to AITC; and infected with Pi and exposed to DADS. Exposure to AITC or DADS consisted of exposing the mandarins for 72 hours to the vapor of 3 mL of the respective compound dispensed in a Petri dish. […] DADS vapor reduced the incidence of Pd mold by 85% and Pi mold by 30% compared to the respective untreated/infected test groups. […] Both AITC and DADS were effective at preventing fungal growth. The inhibition from AITC was approximately 100%, with some changes in visible appearance.

[2] = tested on: Colletotrichum gloeosporioides (Cg); experiment: Antifungal activity of vapor against Colletotrichum gloeosporioides in avocados
Protocol: Example 7. The antifungal activity of AITC and DADS vapor against Colletotrichum gloeosporioides (Cg) was tested in avocados. All test pieces were wounded by removing the stem and infected by dispensing 1000 Cg spores suspended in 10 μL of water into the wound. The test groups consisted of avocados that were: untreated and uninfected; untreated and infected; treated by dipping in a solution of 0.1 g/L of prochloraz; exposed to the vapor of 3 mL of AITC disposed in a Petri dish; and exposed to the vapor of 3 mL of DADS disposed in a Petri dish. FIG. 9 quantifies the infection results. AITC vapor reduced the incidence of Cg mold by 97% compared to the untreated test group and 70% compared to the prochloraz treated test group. DADS vapor reduced the incidence of Cg mold by 60% compared to the untreated test group.
Example 8. The antifungal activity of a range of DADS vapor exposure times was tested against Cg in avocados. All test pieces were wounded by removing the stem and infected by dispensing 1000 Cg spores suspended in 10 μL of water into the wound. The test groups consisted of avocados that were: infected and untreated; and exposed to the vapor of 3 mL of DADS in a Petri dish for 24 hours, 48 hours, and 72 hours. FIG. 10 quantifies the infection results. Test group exposed to DADS vapor at all exposure times reduced the incidence of Cg mold compared to the untreated test group. A 24 hour DADS exposure reduced the incidence of Cg mold by 8%. A 48 hour DADS exposure reduced the incidence of Cg mold by 25%. A 72 hour DADS exposure reduced the incidence of Cg mold by 57%.
Example 9. The antifungal activity of a range of AITC and carvacrol vapor exposure times was tested against Cg in avocados. To measure the effect of the various treatments on ripening, durometer shore was taken after 7 days of incubation at ambient temperature and high humidity. All samples were wounded by removing the stem and infected by dispensing 1000 Cg spores suspended in 10 μL of water in the wound. The test groups consisted of avocados that were: infected and left untreated on the benchtop; infected and left untreated under a fume hood; exposed to the vapor of 3 mL of AITC in a Petri dish for 24 hours, 48 hours, and 72 hours; and exposed to the vapor of 3 mL of carvacrol in a Petri dish for 72 hours. FIG. 11 quantifies the infection results. […] All exposure times to AITC vapor reduced the incidence of Cg mold compared to the untreated samples. A 24 hour AITC exposure reduced the incidence of Cg mold by 90%. A 48 hour AITC exposure reduced the incidence of Cg mold by 97%. A 72 hour AITC exposure reduced the incidence of Cg mold by 83%. […]
Example 21. The antifungal activity of avocados exposed to AITC vapor and prochloraz was tested against Cg in avocados. To measure the effect of the various treatments on ripening, durometer shore was taken after 5 days of incubation at ambient temperature (about 20° C. to about 25° C.) and high humidity (about 88% relative humidity to about 93% relative humidity). All samples were wounded by removing the stem and infected by dispensing 1000 Cg spores suspended in 10 μL of water in the wound. Exposure to vapor was done by placing the avocados in an airtight container, dispensing AITC onto Whatman filter paper discs, suspending the discs in front of a battery-powered fan, closing the container and incubating the avocados for 30 minutes. After vapor exposure, the avocados were left at ambient temperature, high humidity, and assessed for Cg mold on day 5. Treatment groups consisted of avocados that were: exposed for 30 minutes to the vapor of 125 μL of AITC disposed on a filter paper disc; dipped in a solution of 0.1 g/L of prochloraz and placed to dry on a rack in front of a fan for 30 min; infected and left untreated; and uninfected and untreated. […] To prepare the 0.1 g/L of prochloraz, 10 mg of prochloraz was mixed with 10 mL of ethanol and 90 mL of water. […] A 24 hour AITC exposure reduced the incidence of Cg mold by 90%. […]

[3] = tested on: Botrytis cinerea (Bc); experiment: Antifungal activity of vapor against Botrytis cinerea in grapes; details: vapor of 3 mL in a Petri dish for 72 hours
Protocol: (§1) Example 12. The antifungal activity of AITC and DADS vapor against Botrytis cinerea (Bc) in grapes was tested. All samples were wounded by making a 3 mm deep puncture in the skin. Samples were infected by dispensing 1000 Bc spores suspended in 10 μL of water in the wound. The test groups consisted of grapes that were: uninfected and untreated; infected and untreated; exposed to the vapor of 3 mL of AITC in a Petri dish for 72 hours; and exposed to the vapor of 3 mL of DADS in a Petri dish for 72 hours. FIG. 17 quantifies the infection results. […] Both AITC and DADS vapor were effective at controlling Bc mold. Treatment with AITC can potentially lead to changes in color or flavor of the grapes.

[4] = tested on: grapes; experiment: Visible appearance of vapor-treated grapes
Protocol: as §1

C=CCN=C=S [AITC, allyl isothiocyanate]
inhibition of fungal growth ([1]; mandarins infected with Pi): approximately 100% | effect on Pi infection ([1]; mandarins): substantially prevented | reduction of the incidence of Cg mold ([2]; 24 hour AITC exposure as printed): 90% | reduction of the incidence of Cg mold ([2]; Example 9, vapor of 3 mL in a Petri dish for 24 hours, 7 days of incubation): 90% | reduction of the incidence of Cg mold ([2]; Example 9, vapor of 3 mL in a Petri dish for 48 hours, 7 days of incubation): 97% | reduction of the incidence of Cg mold ([2]; Example 9, vapor of 3 mL in a Petri dish for 72 hours, 7 days of incubation): 83% | incidence of Cg mold ([2]; Example 21, 30 minutes vapor of 125 μL on filter paper disc, assessed on day 5): reduced the incidence of Cg mold compared to the untreated samples and the prochloraz treated sample | reduction of the incidence of Cg mold compared to the untreated test group ([2]; vapor of 3 mL in a Petri dish): 97% | reduction of the incidence of Cg mold compared to the prochloraz treated test group ([2]; vapor of 3 mL in a Petri dish, prochloraz 0.1 g/L dip): 70% | effect on Bc mold [3]: substantially eliminated Bc mold | visible appearance of treated fruit ([4]; in vivo): darkening of the fruit

C=CCSSCC=C [DADS, diallyl disulfide]
reduction of the incidence of Pi mold compared to the untreated/infected test group ([1]; mandarins): 30% | reduction of the incidence of Cg mold ([2]; Example 8, vapor of 3 mL in a Petri dish for 24 hours): 8% | reduction of the incidence of Cg mold ([2]; Example 8, vapor of 3 mL in a Petri dish for 48 hours): 25% | reduction of the incidence of Cg mold ([2]; Example 8, vapor of 3 mL in a Petri dish for 72 hours): 57% | reduction of the incidence of Cg mold compared to the untreated test group ([2]; vapor of 3 mL in a Petri dish): 60% | effect on Bc mold [3]: substantially eliminated Bc mold | visible appearance of treated fruit ([4]; grapes, vapor of 3 mL in a Petri dish for 72 hours): appeared unchanged
